Experiments:
ACAT = ACAT inhibiting activity test using HepG2 cells; assay type: cell-based; settings: 10⁻⁶M test compound, human cultured cell line HepG2, [14C]-oleic acid incorporation into cholesterol ester; 1 µM
Method: The ACAT inhibiting activity test using cells of human cultured cell line HepG2 was carried out in accordance with the method of Goldstein et al as described in Methods Enzymology, 98, 241, 1983. 5 x 10⁵ cells/well of human cultured cell line HepG2 were pre-cultured in 5% LPDS (rabbit lipoprotein-deficient serum)-DMEM (Dulbecco Modified Eagle Medium) overnight, and the medium was changed for a fresh 5% LPDS-DMEM (1 mℓ/well). To the medium having the cells were added 3 µℓ, as a whole, of cholesterol and 25-OH-cholesterol as dissolved in ethanol (with the final concentration being 10 µg/mℓ and 5 µg/mℓ, respectively) and 10 µℓ of a test compound (shown in Table 3 below) as dissolved in methanol (with the final concentration being 10⁻⁶M). The cells were cultured for 4 hours. Then, 10 µℓ (0.42 µCi/0.1 µmol/well) of [¹⁴C]-oleic acid-BSA (bovine serum albumin) complex was added to the medium, and the cells were cultured for further 2 hours. After the cultured cells were washed, the lipid of the cells was extracted with 0.5 mℓ/well of hexane/isopropanol (3/2) containing [3H]-cholesterol oleic acid 2000 dpm. The extract was dried to a solid under reduced pressure and the solid was fractionated by silica gel thin layer chromatography using a developing solvent of petroleum ether/diethyl ether/acetic acid (170/30/1) whereupon the radioactivity of the spot of the cholesterol ester was measured with a liquid scintillation counter. Subtracting the radioactivity of the blank test to which cholesterol and 25-OH-cholesterol were not added from the radioactivity as measured above gives the radioactivity of the test compound. The ACAT inhibiting activity of the test compound was calculated from the following equation, based on the radioactivity of the control group as obtained in the same manner as above without using the test compound. ACAT Inhibition (%) = {[Radioactivity of Control Group) - (Radioactivity of Test Compound)]/(Radioactivity of Control Group)} x 100

male ddy strain mice = assay: Test for acute toxicity (minimum lethal dose, oral); assay type: in vivo; settings: orally administered, mortality observed seven days after administration
Method: Groups of 3 male ddy strain mice weighing 20±1g were used. The test compounds were orally administered. Seven days after administration, the mortality was observed and the minimum lethal dose (MLD) was determined.

Structure (SMILES)	Percentage of ACAT Inhibition (ACAT)	Acute Toxicity (MLD) (male ddy strain mice)
Cc1ccc2c(c1)C(CNC(=O)Nc1c(C(C)C)cccc1C(C)C)c1ccccc1CO2 (centres unmarked) [Compound 1, N-(2,6-diisopropylphenyl)-N'-(2-methyl-6,11-dihydrodibenz[b,e]oxepin-11-ylmethyl)urea]	99%	
CC(C)c1cccc(C(C)C)c1NC(=O)NCC1c2ccccc2COc2ccc(Br)cc21 (centres unmarked) [Compound 2, N-(2,6-diisopropylphenyl)-N'-(2-bromo-6,11-dihydrodibenz[b,e]oxepin-11-ylmethyl)urea]	98%	>300 mg/kg
Cc1cc2c(c(C)c1Br)C(CNC(=O)Nc1c(C(C)C)cccc1C(C)C)c1ccccc1CO2 (centres unmarked) [Compound 3, N-(2,6-diisopropylphenyl)-N'-(2-bromo-1,3-dimethyl-6,11-dihydrobenz[b,e]oxepin-11-ylmethyl)urea]	97%	
CC(C)c1cccc(C(C)C)c1NC(=O)NC=C1c2ccccc2COc2ccccc21 [Compound 4]	93%	
CC(C)c1cccc(C(C)C)c1NC(=O)NC=C1c2ccccc2CCc2ccccc21 [Compound 5]	94%	>300 mg/kg
CC(C)c1cccc(C(C)C)c1NC(=O)OCC1c2ccccc2COc2ccccc21 (centres unmarked) [Compound 6, (6,11-Dihydrodibenz[b,e]oxepin-11-ylmethyl)-(2,6-diisopropylphenyl)carbamate]	40%	
